Measured values reported in ChEMBL document CHEMBL1201862, “PubChem BioAssay data set” (2004).
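Following 48 hours of exposure in 96-well plates, responses at five concentrations were used to interpolate endpoints linearly. Here, GI50 denotes the concentration required for 50% inhibition of growth.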 The source made the active and inactive calls. No stated cut-off is given here; in the data, active = GI50 up to about 1.1 µM and inactive = higher.

Experiments:
Assay in all cases: NCI tumour cell line growth inhibition, 48 h
[1] = tested on: HCT-15
[2] = tested on: SK-MEL-28
[3] = tested on: MOLT-4
[4] = tested on: HCC 2998
[5] = tested on: NCI-H23
[6] = tested on: UACC-257
[7] = tested on: SK-MEL-2
[8] = tested on: HL-60
[9] = tested on: COLO 205
[10] = tested on: SNB-19
[11] = tested on: UO-31
[12] = tested on: HT-29
[13] = tested on: ACHN
[14] = tested on: UACC-62
[15] = tested on: SW-620
[16] = tested on: Malme-3M
[17] = tested on: KM12
[18] = tested on: RXF 393

| Compound | GI50 [1] | GI50 [2] | GI50 [3] | GI50 [4] | GI50 [5] | GI50 [6] | GI50 [7] | GI50 [8] | GI50 [9] | GI50 [10] | GI50 [11] | GI50 [12] | GI50 [13] | GI50 [14] | GI50 [15] | GI50 [16] | GI50 [17] | GI50 [18] |
| --- | --- | --- | --- | --- | --- | --- | --- | --- | --- | --- | --- | --- | --- | --- | --- | --- | --- | --- |
| N#C/C(=C\c1ccc(O)c(O)c1)C(N)=S [TYRPHOSTIN 47] | 53.5 µM | > 84.7 µM (inactive) | 32.7 µM (inactive) | > 73.5 µM (inactive) | 64 µM (inactive) | > 54.7 µM (inactive) | > 100 µM (inactive) | 10.1 µM (inactive) | 56 µM (inactive) | > 70.3 µM (inactive) | 98.9 µM (inactive) | 61.8 µM (inactive) | > 100 µM (inactive) | 81.5 µM (inactive) | 79.1 µM (inactive) | > 100 µM (inactive) | 68.2 µM (inactive) |  |
| COc1ccc2c(c1)[n+]([O-])c(-c1ccccc1)c(N)[n+]2[O-] | 35.3 µM | 25 µM (inactive) | 71.3 µM (inactive) | 54 µM (inactive) | 23.9 µM (inactive) | 21.2 µM (inactive) | 46 µM (inactive) | 41.6 µM (inactive) | 20.4 µM (inactive) | 42.5 µM (inactive) | 63.1 µM (inactive) | 52.7 µM (inactive) | 52.6 µM (inactive) | 30.3 µM (inactive) | 39.3 µM (inactive) | 20.9 µM (inactive) | 63.4 µM (inactive) |  |
| Brc1ccc(C[N+]23CN4CN(CN(C4)C2)C3)cc1 | 24.2 µM | 31.3 µM (inactive) | 20.5 µM (inactive) | 47.1 µM (inactive) | 29.1 µM (inactive) | 30.5 µM (inactive) |  | 10.4 µM (inactive) | 26.3 µM (inactive) | > 100 µM (inactive) | 50.5 µM (inactive) |  | 44.6 µM (inactive) | 14.8 µM (inactive) | 22.8 µM (inactive) | 26.2 µM (inactive) | > 100 µM (inactive) | 17 µM (inactive) |
| CC1OC(n2cc(I)c(=O)[nH]c2=O)C=CC1=O (stereo not given) | 17.1 µM | 15.7 µM (inactive) | 14.1 µM (inactive) | 17.5 µM (inactive) | 17 µM (inactive) | 14.7 µM (inactive) | 17.9 µM (inactive) | 6.82 µM (inactive) | 17 µM (inactive) | 17.7 µM (inactive) | 16.9 µM (inactive) | 16.8 µM (inactive) | 17.7 µM (inactive) | 17.2 µM (inactive) | 13.2 µM (inactive) | 14.9 µM (inactive) | 13 µM (inactive) |  |
| NC(=O)NNC/C(Cl)=C(\Cl)C(=O)O | > 100 µM | > 100 µM (inactive) | > 100 µM (inactive) | > 100 µM (inactive) | > 100 µM (inactive) | > 82.6 µM (inactive) | > 100 µM (inactive) | > 100 µM (inactive) | > 100 µM (inactive) | > 100 µM (inactive) | > 100 µM (inactive) | > 100 µM (inactive) | > 100 µM (inactive) | > 100 µM (inactive) | > 100 µM (inactive) | > 100 µM (inactive) | > 100 µM (inactive) |  |
| Cc1ccc(-c2c(N)[n+]([O-])c3ccccc3[n+]2[O-])cc1 | 3.42 µM | 6.52 µM (inactive) | 45.2 µM (inactive) | 15.8 µM (inactive) | 5 µM (inactive) | 7.21 µM (inactive) | 8.51 µM (inactive) | 9.95 µM (inactive) | 15.2 µM (inactive) | 12.7 µM (inactive) | 16.1 µM (inactive) | 12.3 µM (inactive) | 15.4 µM (inactive) | 7.18 µM (inactive) | 5.25 µM (inactive) | 3.47 µM (inactive) | 11.9 µM (inactive) |  |
| NCCSSCc1ccccc1CSSCCN | 38.5 µM | > 100 µM (inactive) | 30.5 µM (inactive) | 50.1 µM (inactive) | > 100 µM (inactive) | > 100 µM (inactive) |  | 8.02 µM (inactive) | > 100 µM (inactive) | > 100 µM (inactive) | > 100 µM (inactive) | 97.1 µM (inactive) | 8.65 µM (inactive) | > 100 µM (inactive) | 20.4 µM (inactive) | 72.3 µM (inactive) | > 100 µM (inactive) | > 100 µM (inactive) |
| O=NN1CCN=C1c1ccc([N+](=O)[O-])cc1 | > 100 µM | > 100 µM (inactive) | > 100 µM (inactive) | > 100 µM (inactive) | > 100 µM (inactive) | > 100 µM (inactive) |  | > 100 µM (inactive) | > 100 µM (inactive) | > 100 µM (inactive) | 66.2 µM (inactive) | > 100 µM (inactive) | > 100 µM (inactive) | > 100 µM (inactive) | > 100 µM (inactive) | > 100 µM (inactive) | > 100 µM (inactive) | > 100 µM (inactive) |
